Measurements published in US11376298B2, “Composition comprising natural substances having healing, repellent and biocidal properties for the treatment and the cure of external wounds” (priority 2004, dated 2022).

Legend:
[1] = EPA (USA) and EEA (UE); cited from earlier work
cheloid = assay: Cheloid therapy on wounds in the distal part of horse's limb; type: in vivo, horses; settings: composition versus Salicylic acid therapy
Text: Cheloid is a disturbance of the granulation tissue due to a hyperproliferation of the fibroblasts. These cells stop the mitogenic activity when enough extracellular matrix fills the wound crater. Collagen fibrils of the matrix start to retract anchoring the wounds edges to fibroblasts. When the collagen fibrils start to retract, fibroblasts stop to secrete the matrix (antimitogenic effect). Most of them undergo apoptosis (cell death without inducing an inflammatory reaction) and quiescence (sleeping fibroblasts), while only a small part undergo the transformation into myofibroblasts (which play a role in the last phases of the wound healing). Newly formed capillary vessels are absorbed and disappear in synchrony with the fibroblasts. Keratinocytes on the top of the healed area start to re-epithelialize the area and the process is complete: In horse, researchers have identified two orders of problems responsible for the high incidence of cheloid pathology: 1) exaggerated tension stimuli at the levels of the distal part of the horses legs, due too scarcity of muscle mass and hypodermal fat and 2) slow capacity of the keratinocytes to obtain the re-epithelialization of the granulated area maybe due to a scarcity of the signals responsible for the antimitogenic effects on fibroblasts. […]

In the case of `C/C=C(\C)C(=O)O[C@H]1C[C@@H](OC(C)=O)[C@@]2(C(=O)OC)CO[C@H]3[C@@H](O)[C@@](C)([C@]45O[C@@]4(C)[C@@H]4C[C@H]5O[C@@H]5OC=C[C@@]54O)[C@H]4[C@]1(CO[C@]4(O)C(=O)OC)[C@@H]32` [Azadirachtin A], the class of toxicity [1] is given as “IVth”.
In the case of `O=C(O)c1ccccc1O` [Salicylic acid, salicylic acid], the “time of healing / effectiveness in comparison of therapies” value (cheloid) is reported as “not as effective as the therapy with the present composition”.
